Legend:
[1] = Cytotoxicity against human SKOV3 cells assessed as reduction in cell viability after 48 hrs by MTT assay; assay type: functional, cell-based; conditions: SK-OV-3, 48 h
[2] = Cytotoxicity against human MDA-MB-231 cells assessed as reduction in cell viability after 48 hrs by MTT assay; assay type: functional, cell-based; conditions: MDA-MB-231, 48 h
[3] = Cytotoxicity against human HCT116 cells assessed as reduction in cell viability after 48 hrs by MTT assay; assay type: functional, cell-based; conditions: HCT-116, 48 h
[4] = Cytotoxicity against human MCF10A cells assessed as reduction in cell viability after 48 hrs by MTT assay; assay type: toxicity, cell-based, MCF-10A
[5] = Cytotoxicity against human WI38 cells assessed as reduction in cell viability after 48 hrs by MTT assay; assay type: toxicity, cell-based, WI-38
[6] = Selectivity ratio of IC50 for human WI38 cells to IC50 for human MDA-MB-231 cells; assay type: ADME, cell-based, WI-38; conditions: WI38 cells versus MDA-MB-231 cells, read-out: Ratio IC50
[7] = Selectivity ratio of IC50 for human MCF10A cells to IC50 for human SKOV3 cells; assay type: ADME, cell-based, MCF-10A; conditions: MCF10A cells versus SKOV3 cells, read-out: Ratio IC50
[8] = Selectivity ratio of IC50 for human WI38 cells to IC50 for human SKOV3 cells; assay type: ADME, cell-based, SK-OV-3; conditions: WI38 cells versus SKOV3 cells, read-out: Ratio IC50

| Compound | IC50 [1] [µM] | IC50 [2] [µM] | IC50 [3] [µM] | IC50 at 48 h [4] [µM] | IC50 at 48 h [5] [µM] | selectivity ratio [6] | selectivity ratio [7] | selectivity ratio [8] |
| --- | --- | --- | --- | --- | --- | --- | --- | --- |
| O=C(/C=C/c1ccc2c(c1)B(O)OC2)c1ccccc1 | 3.4 | 2.3 | 6.1 | 15.9 | 19.1 | 8 |  |  |
| Cc1ccc(C(=O)/C=C/c2ccc3c(c2)B(O)OC3)cc1 | 3.7 | 6.5 | 10.5 | 8.3 | 22.2 |  |  |  |
| O=C(/C=C/c1ccc2c(c1)B(O)OC2)c1ccc(-c2ccccc2)cc1 | 4.9 | 6.4 | 9.5 | 20.7 | 18.3 |  |  |  |
| O=C(/C=C/c1ccc2c(c1)B(O)OC2)c1cccc2ccccc12 | 2.7 | 3.6 | 5 | 13.4 | 18.8 |  |  |  |
| O=C(/C=C/c1ccc2c(c1)B(O)OC2)c1ccco1 | 20.7 | 7.3 | 24.1 | 7.4 | 59 |  |  |  |
| O=C(/C=C/c1ccc2c(c1)B(O)OC2)c1cccs1 | 10.4 | 4.6 | 14.2 | 13.8 | 26 |  |  |  |
| Cn1cccc1C(=O)/C=C/c1ccc2c(c1)B(O)OC2 | 93.6 | > 100 | > 100 | > 100 | > 100 |  |  |  |
| O=C(/C=C/c1ccc2c(c1)B(O)OC2)c1ccc([N+](=O)[O-])cc1 | 7.9 | 11.2 | 9.1 | 17.5 | 39.3 |  |  |  |
| O=C(/C=C/c1ccc2c(c1)B(O)OC2)c1ccc(C(F)(F)F)cc1 | 3.7 | 9.2 | 6.3 | 22.3 | 22.6 |  |  |  |
| CCOC(=O)c1ccc(C(=O)/C=C/c2ccc3c(c2)B(O)OC3)cc1 | 7.1 | 13 | 7.6 | 12.9 | 47.2 |  |  |  |
| O=C(/C=C/c1ccc2c(c1)B(O)OC2)c1ccc(F)cc1 | 1.4 | 1.6 | 2.8 | 11.8 | 7.6 |  |  |  |
| O=C(/C=C/c1ccc2c(c1)B(O)OC2)c1ccc(Cl)cc1 | 3.7 | 7.9 | 9.3 | 12.1 | 24.7 |  |  |  |
| O=C(/C=C/c1ccc2c(c1)B(O)OC2)c1ccc(Br)cc1 | 4.5 | 9.5 | 9.9 | 27.8 | 36.7 |  |  |  |
| O=C(/C=C/c1ccc2c(c1)B(O)OC2)c1ccc(I)cc1 | 4.2 | 14.9 | 11.6 | > 100 | > 100 |  | > 25 | > 25 |
| CCc1ccc(C(=O)/C=C/c2ccc3c(c2)B(O)OC3)cc1 | 4.4 | 9.8 | 10.9 | 8.8 | 20.6 |  |  |  |
| CSc1ccc(C(=O)/C=C/c2ccc3c(c2)B(O)OC3)cc1 | 4.1 | 9.8 | 10.3 | 7.4 | 54.3 |  |  |  |
| O=C(/C=C/c1ccc2c(c1)B(O)OC2)c1ccc(OCc2ccccc2)cc1 | 6 | 5.3 | 12.1 | 23.3 | > 100 |  |  |  |
| O=C(/C=C/c1ccc2c(c1)B(O)OC2)c1ccc(O)cc1 | 13 | 25.6 | 24.1 | 24.8 | > 100 |  |  |  |
| Nc1ccc(C(=O)/C=C/c2ccc3c(c2)B(O)OC3)cc1 | 20.2 | 25.8 | 26.1 | 19.9 | 25.4 |  |  |  |
| O=C(/C=C/c1ccc2c(c1)B(O)OC2)c1ccccc1F | 3.7 | 2.2 | 4.2 | 25.4 | 23.6 |  |  |  |
| O=C(/C=C/c1ccc2c(c1)B(O)OC2)c1cccc(F)c1 | 4.8 | 3 | 6.7 | 15.8 | 26.7 |  |  |  |

| Compound | IC50 [1] [µM] | IC50 [2] [µM] | IC50 [3] [µM] | IC50 at 48 h [4] [µM] | IC50 at 48 h [5] [µM] | selectivity ratio [6] | selectivity ratio [7] | selectivity ratio [8] |
| --- | --- | --- | --- | --- | --- | --- | --- | --- |
| Cc1cccc(C(=O)/C=C/c2ccc3c(c2)B(O)OC3)c1 | 2.9 | 4.5 | 6.7 | 15.9 | 16.7 |  |  |  |
| Cc1ccc(C(=O)/C=C/c2ccc3c(c2)B(O)OC3)cc1C | 1.9 | 5.3 | 6.1 | 4.7 | 22 |  |  |  |
| O=C(/C=C/c1ccc2c(c1)B(O)OC2)c1ccc(Cl)c(Cl)c1 | 1.8 | 3.4 | 3.2 | 14.9 | 12.5 |  |  |  |
| O=C(/C=C/c1ccc2c(c1)B(O)OC2)c1ccc(O)c(O)c1 | > 100 | 67.6 | > 100 | > 100 | > 100 |  |  |  |
| COc1ccccc1C(=O)/C=C/c1ccc2c(c1)B(O)OC2 | 2.6 | 3.1 | 5 | 9.1 | 21.7 |  |  |  |
| COc1cccc(C(=O)/C=C/c2ccc3c(c2)B(O)OC3)c1 | 2.6 | 2.1 | 5 | 7.4 | 14.6 |  |  |  |
| COCOc1ccccc1C(=O)/C=C/c1ccc2c(c1)B(O)OC2 | 6.5 | 10.2 | 10.2 | 11.7 | 27 |  |  |  |
| COCOc1cccc(C(=O)/C=C/c2ccc3c(c2)B(O)OC3)c1 | 11.7 | 4.5 | 13.3 | 48.1 | 33.2 |  |  |  |
| Nc1cccc(C(=O)/C=C/c2ccc3c(c2)B(O)OC3)c1 | 7.4 | 3.2 | 4.5 | 19.6 | 25.3 |  |  |  |
| O=C(/C=C/c1ccc2c(c1)B(O)OC2)c1ccccc1O | 48.8 | 16.9 | 77.9 | 53.7 | > 100 |  |  |  |
| O=C(/C=C/c1ccc2c(c1)B(O)OC2)c1cccc(O)c1 | 3.8 | 2.7 | 6.5 | 25.3 | 26.4 |  |  |  |
| COc1ccc(C(=O)/C=C/c2ccc3c(c2)B(O)OC3)cc1OC | 4.8 | 13.2 | 12.2 | 13.5 | 33.5 |  |  |  |
| COc1ccc(C(=O)/C=C/c2ccc3c(c2)B(O)OC3)c(OC)c1 | 6.1 | 11.2 | 16.2 | 12.2 | 86.3 |  |  |  |
| COc1cc(C(=O)/C=C/c2ccc3c(c2)B(O)OC3)cc(OC)c1OC | 5.7 | 10.6 | 7.9 | 48.5 | 18.5 |  |  |  |
| O=C(/C=C/c1ccc2c(c1)B(O)OC2)c1ccc2c(c1)OCCO2 | 7.3 | 7.9 | 10.3 | 11.7 | 30.2 |  |  |  |
| COc1cc(C(=O)/C=C/c2ccc3c(c2)B(O)OC3)ccc1[N+](=O)[O-] | 1.7 | 11.4 | 4.1 | 3.6 | 26 |  |  |  |
| COc1cc(C(=O)/C=C/c2ccc3c(c2)B(O)OC3)ccc1N | 1.7 | 24.3 | 27.9 | 17.6 | > 100 |  |  |  |
| O=C(O)c1ccc(C(=O)/C=C/c2ccc3c(c2)B(O)OC3)cc1 | > 100 | > 100 | > 100 | > 100 | > 100 |  |  |  |
| O=C(/C=C/c1ccc2c(c1)B(O)OC2)c1cccnc1 | 18.5 | 11.4 | 20.5 | 34.4 | 76.2 |  |  |  |
| COc1cccc2c1C(=O)c1c(O)c3c(c(O)c1C2=O)C[C@@](O)(C(=O)CO)C[C@@H]3O[C@H]1C[C@H](N)[C@H](O)[C@H](C)O1 [DOXORUBICIN] | 0.42 |  | 0.31 | 0.06 | 9 |  |  |  |

Source: ChEMBL document CHEMBL3867490, “Chalcone-benzoxaborole hybrids as novel anticancer agents” (Bioorg Med Chem Lett, 2016)
